As usually defined, the solubility is the concentration that dissolves in the medium under given conditions.

Among the data in patent US20250382344A1, “Soluble GLP1/GIP/NPY2 Receptor Triple Agonists” (Boehringer Ingelheim International GmH, priority 2024, published 2025) are solubility and EC50 values, retold here.

Where two headings read alike, the source gives them in different places.

Series [1] can be described thus: Solubility in 0.1 M phosphate buffer at pH 7. Format: physicochemical. Particulars: 0.1 M phosphate buffer at pH 7, 10 mg/mL final peptide concentration, shaking 2 hours at room temperature, peptides as TFA-salts, measured sample pH 6.5-7.0.
Series [2] concerns the target T1, hGIPR (Homo sapiens, UniProt P48546).
T1 construct: expressed in transfected cells; host or cells: CHO CRE-luciferase reporter cells
T1 sequence (P48546 22-466): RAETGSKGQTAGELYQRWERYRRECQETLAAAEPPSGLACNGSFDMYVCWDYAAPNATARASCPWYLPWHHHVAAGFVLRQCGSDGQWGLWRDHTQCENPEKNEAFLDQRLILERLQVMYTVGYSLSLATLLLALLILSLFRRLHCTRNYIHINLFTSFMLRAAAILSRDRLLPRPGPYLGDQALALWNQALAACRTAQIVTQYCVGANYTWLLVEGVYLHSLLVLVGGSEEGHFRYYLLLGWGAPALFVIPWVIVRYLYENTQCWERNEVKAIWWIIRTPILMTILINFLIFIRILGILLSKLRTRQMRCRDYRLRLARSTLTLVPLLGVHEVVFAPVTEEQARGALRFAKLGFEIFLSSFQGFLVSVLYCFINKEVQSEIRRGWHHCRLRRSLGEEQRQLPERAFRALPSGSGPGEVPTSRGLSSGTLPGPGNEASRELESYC
Nature of the series: hGIPR CreLuc assay in 0.5% and 100% plasma (CHO CRE-luciferase reporter cells). Format: cell-based. An excerpt: CHO and HEK-293 recombinant cell lines express a luciferase reporter gene under control of the CAMP responsive element (CRE). As a second recombinant protein the GLP-1 and NPY2 receptors were expressed in the reporter gene HEK cells, and the GIP receptor was expressed in the reporter gene CHO cells, respectively. Stimulation of these recombinant cells with an agonist leads to an increase of intracellular CAMP levels. In the presence of CAMP, the transcription factor CRE binding protein (CREB) binds to the CRE and to the CREB binding protein (CBP), which leads to transcription of the luciferase reporter gene. Peptides upon serial-dilution in 100% DMSO were transferred into 384-well assay plates with 5 μl pre-dispensed assay buffer (1×HBSS, 20 mM HEPES, pH7.4 supplemented with 0.5% human plasma) using acoustic dispensing on a Labcyte ECHO. Cryo-preserved transgenic reporter gene cells were thawed in assay buffer. 20 μl (10.000 cells/well) were added to the plate with the peptides and incubated for 4 hours at 37° C. in a humidified incubator. Following incubation, assay plates are equilibrated to room temperature, followed by addition of 25 μl of Bright-Glo™ Luciferase reagent, incubation at room temperature for 10 minutes and analysis of luminescence (Envision Reader). […] EC50 values were calculated by non-linear regression using sigmoid concentration-response with variable slope.
The same assays were run in the presence of 100% plasma with no additional buffer constituents.
(In general: A reporter such as luciferase makes a cellular process visible.)

Setting [3] is: 0.5% human plasma, read-out: hGIPR 0.5% hP.
Setting [4] is: 100% human plasma, read-out: hGIPR 100% hP.

Consider `CC[C@H](C)[C@H](NC(=O)[C@H](CC(C)C)NC(=O)[C@H](Cc1c[nH]cn1)NC(=O)[C@H](CCCNC(=N)N)NC(=O)[C@@H](NC(=O)[C@H](Cc1ccccc1)NC(=O)[C@H](C)NC(=O)C(C)(C)NC(=O)[C@H](CCC(N)=O)NC(=O)[C@H](C)NC(=O)[C@H](C)NC(=O)[C@H](CCCCN)NC(=O)[C@H](CCC(=O)O)NC(=O)[C@H](CC(C)C)NC(=O)C(C)(C)NC(=O)[C@@H](NC(=O)[C@H](CO)NC(=O)[C@H](Cc1ccc(O)cc1)NC(=O)[C@H](CC(=O)O)NC(=O)[C@H](CO)NC(=O)[C@@H](NC(=O)[C@H](Cc1ccccc1)NC(=O)[C@@H](NC(=O)CNC(=O)[C@H](CCC(=O)O)NC(=O)C(C)(C)NC(=O)[C@@H](N)Cc1ccc(O)cc1)[C@@H](C)O)[C@@H](C)O)[C@@H](C)CC)C(C)C)C(=O)N[C@@H](CC(N)=O)C(=O)N[C@@H](CCCCNC(=O)[C@@H](N)CCCCNC(=O)CC[C@H](NC(=O)CC[C@H](NC(=O)CC[C@H](NC(=O)CC[C@H](NC(=O)CC[C@H](NC(=O)CC[C@H](NC(=O)CCCCCCCCCCCCCCCCCCC(=O)O)C(=O)O)C(=O)O)C(=O)O)C(=O)O)C(=O)O)C(=O)O)C(=O)NC(C)(C)C(=O)N[C@H](C(=O)N[C@@H](CCCNC(=N)N)C(=O)N[C@@H](CCC(N)=O)C(=O)N[C@@H](CCCNC(=N)N)C(=O)N[C@@H](Cc1ccc(O)cc1)C(N)=O)[C@@H](C)O` [Compound 4, Y-Aib-E-G-T-F-T-S-D-Y-S-I-Aib-L-E-K-A-A-Q-Aib-A-F-V-R-H-L-I-N-K(1,3)-Aib-T-R-Q-R-Y-NH2.C20DA-gGlu-gGlu-gGlu-gGlu-gGlu-gGlu-eLys(1,2)], for which, in series [1], the solubility at 2 h was 10000 µg/mL. Also, the EC50 in series [2] (setting [3]) was determined as 0.3 nM; in series [2] (setting [4]), 11.5 nM.
As for `CC[C@H](C)[C@H](NC(=O)[C@H](CC(C)C)NC(=O)[C@H](Cc1c[nH]cn1)NC(=O)[C@H](CCCNC(=N)N)NC(=O)[C@@H](NC(=O)[C@H](Cc1ccccc1)NC(=O)[C@H](C)NC(=O)C(C)(C)NC(=O)[C@H](CCC(N)=O)NC(=O)[C@H](C)NC(=O)[C@H](CCC(N)=O)NC(=O)[C@H](CC(N)=O)NC(=O)[C@H](CCC(=O)O)NC(=O)[C@H](CC(C)C)NC(=O)C(C)(C)NC(=O)[C@@H](NC(=O)[C@H](CO)NC(=O)[C@H](Cc1ccc(O)cc1)NC(=O)[C@H](CC(=O)O)NC(=O)[C@H](CO)NC(=O)[C@@H](NC(=O)[C@H](Cc1ccccc1)NC(=O)[C@@H](NC(=O)CNC(=O)[C@H](CCC(=O)O)NC(=O)C(C)(C)NC(=O)[C@@H](N)Cc1ccc(O)cc1)[C@@H](C)O)[C@@H](C)O)[C@@H](C)CC)C(C)C)C(=O)N[C@@H](CC(N)=O)C(=O)N[C@@H](CCCCNC(=O)[C@@H](N)CCCCNC(=O)CC[C@H](NC(=O)CC[C@H](NC(=O)CC[C@H](NC(=O)CC[C@H](NC(=O)CC[C@H](NC(=O)CC[C@H](NC(=O)CCCCCCCCCCCCCCCCC(=O)O)C(=O)O)C(=O)O)C(=O)O)C(=O)O)C(=O)O)C(=O)O)C(=O)NC(C)(C)C(=O)N[C@H](C(=O)N[C@@H](CCCNC(=N)N)C(=O)N[C@@H](CCC(N)=O)C(=O)N[C@@H](CCCNC(=N)N)C(=O)N[C@@H](Cc1ccc(O)cc1)C(N)=O)[C@@H](C)O` [Compound 6, Y-Aib-E-G-T-F-T-S-D-Y-S-I-Aib-L-E-N-Q-A-Q-Aib-A-F-V-R-H-L-I-N-K(1,3)-Aib-T-R-Q-R-Y-NH2.C18DA-gGlu-gGlu-gGlu-gGlu-gGlu-gGlu-eLys(1,2)], in series [1], the solubility at 2 h was 8900 µg/mL. Moreover, the EC50 in series [2] (setting [3]) amounted to 0.7 nM.
For `CC[C@H](C)[C@H](NC(=O)[C@H](CC(C)C)NC(=O)[C@H](Cc1c[nH]cn1)NC(=O)[C@H](CCCNC(=N)N)NC(=O)[C@@H](NC(=O)[C@H](Cc1ccccc1)NC(=O)[C@H](C)NC(=O)C(C)(C)NC(=O)[C@H](CCC(N)=O)NC(=O)[C@H](C)NC(=O)[C@H](CCC(N)=O)NC(=O)[C@H](CCCCN)NC(=O)[C@H](CCC(=O)O)NC(=O)[C@H](CC(C)C)NC(=O)C(C)(C)NC(=O)[C@@H](NC(=O)[C@H](CO)NC(=O)[C@H](Cc1ccc(O)cc1)NC(=O)[C@H](CC(=O)O)NC(=O)[C@H](CO)NC(=O)[C@@H](NC(=O)[C@H](Cc1ccccc1)NC(=O)[C@@H](NC(=O)CNC(=O)[C@H](CCC(=O)O)NC(=O)C(C)(C)NC(=O)[C@@H](N)Cc1ccc(O)cc1)[C@@H](C)O)[C@@H](C)O)[C@@H](C)CC)C(C)C)C(=O)N[C@@H](CC(N)=O)C(=O)N[C@@H](CCCCNC(=O)[C@@H](N)CCCCNC(=O)[C@@H](N)CCCCNC(=O)CC[C@H](NC(=O)CC[C@H](NC(=O)CC[C@H](NC(=O)CC[C@H](NC(=O)CC[C@H](NC(=O)CC[C@H](NC(=O)CCCCCCCCCCCCCCCCC(=O)O)C(=O)O)C(=O)O)C(=O)O)C(=O)O)C(=O)O)C(=O)O)C(=O)NC(C)(C)C(=O)N[C@H](C(=O)N[C@@H](CCCNC(=N)N)C(=O)N[C@@H](CCC(N)=O)C(=O)N[C@@H](CCCNC(=N)N)C(=O)N[C@@H](Cc1ccc(O)cc1)C(N)=O)[C@@H](C)O` [Compound 11, Y-Aib-E-G-T-F-T-S-D-Y-S-I-Aib-L-E-K-Q-A-Q-Aib-A-F-V-R-H-L-I-N-K(1,3)-Aib-T-R-Q-R-Y-NH2.C18DA-gGlu-gGlu-gGlu-gGlu-gGlu-gGlu-eLys-eLys(1,2)], in series [1], the solubility at 2 h is 800 µg/mL. Also, the EC50 is 0.3 nM in series [2] (setting [3]) and 8 nM in series [2] (setting [4]).
In the same order, the values of `CC[C@H](C)[C@H](NC(=O)[C@H](CC(C)C)NC(=O)[C@H](Cc1c[nH]cn1)NC(=O)[C@H](CCCNC(=N)N)NC(=O)[C@@H](NC(=O)[C@H](Cc1ccccc1)NC(=O)[C@H](C)NC(=O)C(C)(C)NC(=O)[C@H](CCC(N)=O)NC(=O)[C@H](C)NC(=O)[C@H](CCC(N)=O)NC(=O)[C@H](CCCCN)NC(=O)[C@H](CCC(=O)O)NC(=O)[C@H](CC(C)C)NC(=O)C(C)(C)NC(=O)[C@@H](NC(=O)[C@H](CO)NC(=O)[C@H](Cc1ccc(O)cc1)NC(=O)[C@H](CC(=O)O)NC(=O)[C@H](CO)NC(=O)[C@@H](NC(=O)[C@H](Cc1ccccc1)NC(=O)[C@@H](NC(=O)CNC(=O)[C@H](CCC(=O)O)NC(=O)C(C)(C)NC(=O)[C@@H](N)Cc1ccc(O)cc1)[C@@H](C)O)[C@@H](C)O)[C@@H](C)CC)C(C)C)C(=O)N[C@@H](CC(N)=O)C(=O)N[C@@H](CCCCNC(=O)[C@@H](N)CCCCNC(=O)CC[C@H](NC(=O)CC[C@H](NC(=O)CC[C@H](NC(=O)CC[C@H](NC(=O)CC[C@H](NC(=O)CC[C@H](NC(=O)CCCCCCCCCCCCCCCCC(=O)O)C(=O)O)C(=O)O)C(=O)O)C(=O)O)C(=O)O)C(=O)O)C(=O)NC(C)(C)C(=O)N[C@H](C(=O)N[C@@H](CCCNC(=N)N)C(=O)N(C)[C@@H](CCC(N)=O)C(=O)N[C@@H](CCCNC(=N)N)C(=O)N[C@@H](Cc1ccc(O)cc1)C(N)=O)[C@@H](C)O` [Compound 17, Y-Aib-E-G-T-F-T-S-D-Y-S-I-Aib-L-E-K-Q-A-Q-Aib-A-F-V-R-H-L-I-N-K(1,3)-Aib-T-R-NMeQ-R-Y-NH2.C18DA-gGlu-gGlu-gGlu-gGlu-gGlu-gGlu-eLys(1,2)] are 4000 µg/mL, 0.2 nM and 2 nM.
Regarding `CC[C@H](C)[C@H](NC(=O)[C@H](CC(C)C)NC(=O)[C@H](Cc1c[nH]cn1)NC(=O)[C@H](CCCNC(=N)N)NC(=O)[C@@H](NC(=O)[C@H](Cc1ccccc1)NC(=O)[C@H](C)NC(=O)C(C)(C)NC(=O)[C@H](CCC(N)=O)NC(=O)[C@H](C)NC(=O)[C@H](CCC(N)=O)NC(=O)[C@H](CCCCN)NC(=O)[C@H](CCC(=O)O)NC(=O)[C@H](CC(C)C)NC(=O)C(C)(C)NC(=O)[C@@H](NC(=O)[C@H](CO)NC(=O)[C@H](Cc1ccc(O)cc1)NC(=O)[C@H](CC(=O)O)NC(=O)[C@H](CO)NC(=O)[C@@H](NC(=O)[C@H](Cc1ccccc1)NC(=O)[C@@H](NC(=O)CNC(=O)[C@H](CCC(=O)O)NC(=O)C(C)(C)NC(=O)[C@@H](N)Cc1ccc(O)cc1)[C@@H](C)O)[C@@H](C)O)[C@@H](C)CC)C(C)C)C(=O)N[C@@H](CC(N)=O)C(=O)N[C@@H](CCCCNC(=O)[C@@H](N)CCCCNC(=O)CC[C@H](NC(=O)CC[C@H](NC(=O)CC[C@H](NC(=O)CC[C@H](NC(=O)CC[C@H](NC(=O)CC[C@H](NC(=O)CCCCCCCCCCCCCCCCCCC(=O)O)C(=O)O)C(=O)O)C(=O)O)C(=O)O)C(=O)O)C(=O)O)C(=O)NC(C)(C)C(=O)N[C@H](C(=O)N[C@@H](CCCNC(=N)N)C(=O)N(C)[C@@H](CCC(N)=O)C(=O)N[C@@H](CCCNC(=N)N)C(=O)N[C@@H](Cc1ccc(O)cc1)C(N)=O)[C@@H](C)O` [Compound 26, Y-Aib-E-G-T-F-T-S-D-Y-S-I-Aib-L-E-K-Q-A-Q-Aib-A-F-V-R-H-L-I-N-K(1,3)-Aib-T-R-NMeQ-R-Y-NH2.C20DA-gGlu-gGlu-gGlu-gGlu-gGlu-gGlu-eLys(1,2)], in series [1] (read-out: Solubility), the solubility came out at 9400 µg/mL. Also, the values for the EC50 in series [2] (setting [3]) and in series [2] (setting [4]) were 0.3 nM and 5.6 nM, respectively.
